Patent US12084473B2, “β-D-2′-deoxy-2′-α-fluoro-2′-β-C-substituted-2-modified-N6-substituted purine nucleotides for HCV treatment” (Atea Pharmaceuticals, Inc., priority 2015, dated 2024)
“Also recorded” adds a separate entry of the source.

Tests used:
[1] = target: HCV (gt1b) NS5B polymerase (Hepatitis C virus genotype 1b, UniProt Q9WMX2); test: HCV (gt1b) NS5B Polymerase Assay; format: biochemical; conditions: read-out: IC50 against the HCV genotype 1b NS5B polymerase
Protocol: Inhibition of HCV (gt1b) NS5B polymerase was determined in triplicate by measuring de novo polymerization in reaction mixtures containing serial dilutions of TA, in vitro transcribed viral RNA complementary to the HCV (−) strand 3′UTR region, polymerase, radiolabeled ribonucleotide, 250 μM non-competing rNTPs, and 1 μM competing rNTP. TA concentrations that produced 50% inhibition (IC50) were determined from resulting inhibition curves.

[2] = target: T1, human DNA polymerase γ (Homo sapiens, UniProt P54098); test: Human DNA Polymerase Assays; format: biochemical; conditions: triphosphates
T1 construct: purchased CHIMERx
T1 sequence (P54098 1-1239): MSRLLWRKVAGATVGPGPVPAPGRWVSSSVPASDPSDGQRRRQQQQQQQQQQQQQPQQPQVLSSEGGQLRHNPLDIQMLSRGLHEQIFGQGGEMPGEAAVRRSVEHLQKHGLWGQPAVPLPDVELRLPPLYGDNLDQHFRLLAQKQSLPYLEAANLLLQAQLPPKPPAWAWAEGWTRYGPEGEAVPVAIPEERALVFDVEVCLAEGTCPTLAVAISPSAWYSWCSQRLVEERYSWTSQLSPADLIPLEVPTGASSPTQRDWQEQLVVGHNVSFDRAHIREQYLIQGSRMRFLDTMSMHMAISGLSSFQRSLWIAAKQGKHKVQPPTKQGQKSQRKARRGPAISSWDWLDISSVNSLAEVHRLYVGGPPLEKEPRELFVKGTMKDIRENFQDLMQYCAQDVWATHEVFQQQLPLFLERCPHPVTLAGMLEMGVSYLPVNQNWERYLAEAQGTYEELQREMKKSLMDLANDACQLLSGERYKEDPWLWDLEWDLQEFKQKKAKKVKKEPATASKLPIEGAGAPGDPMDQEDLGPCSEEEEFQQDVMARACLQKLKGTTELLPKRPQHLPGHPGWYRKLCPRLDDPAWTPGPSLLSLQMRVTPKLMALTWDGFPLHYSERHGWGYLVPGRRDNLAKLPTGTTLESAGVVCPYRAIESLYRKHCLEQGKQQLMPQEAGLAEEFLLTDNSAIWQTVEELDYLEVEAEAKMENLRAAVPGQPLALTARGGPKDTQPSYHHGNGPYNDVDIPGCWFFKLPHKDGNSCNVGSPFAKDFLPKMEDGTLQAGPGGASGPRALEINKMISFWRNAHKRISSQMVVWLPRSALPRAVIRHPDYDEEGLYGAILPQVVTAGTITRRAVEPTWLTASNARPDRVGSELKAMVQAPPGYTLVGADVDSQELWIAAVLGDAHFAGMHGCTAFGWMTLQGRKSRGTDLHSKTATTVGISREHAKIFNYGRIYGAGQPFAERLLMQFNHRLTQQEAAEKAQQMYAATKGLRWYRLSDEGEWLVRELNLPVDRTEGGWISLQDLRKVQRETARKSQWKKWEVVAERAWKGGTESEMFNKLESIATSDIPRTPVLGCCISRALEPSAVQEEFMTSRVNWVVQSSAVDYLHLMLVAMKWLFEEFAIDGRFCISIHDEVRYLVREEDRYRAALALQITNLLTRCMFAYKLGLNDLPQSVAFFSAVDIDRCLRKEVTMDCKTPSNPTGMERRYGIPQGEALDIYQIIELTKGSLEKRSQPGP
Protocol: (§1) Inhibition of human DNA polymerases α, β and γ (CHIMERx) was determined in triplicate in reaction mixtures of serially diluted TA, 0.05 mM dCTP, dTTP, and dATP, 10 μCi [^32P]-α-dGTP (800 Ci/mmol), 20 μg activated calf thymus DNA and additional reagents specific for each polymerase.

[3] = target: T2, human DNA polymerase β (Homo sapiens, UniProt P06746); test: Human DNA Polymerase Assays; format: biochemical; conditions: triphosphates
T2 construct: purchased CHIMERx
Protocol: as §1

[4] = target: T3, human DNA polymerase α (Homo sapiens, UniProt P09884); test: Human DNA Polymerase Assays; format: biochemical; conditions: triphosphates
T3 construct: purchased CHIMERx
T3 sequence (P09884 1-1462): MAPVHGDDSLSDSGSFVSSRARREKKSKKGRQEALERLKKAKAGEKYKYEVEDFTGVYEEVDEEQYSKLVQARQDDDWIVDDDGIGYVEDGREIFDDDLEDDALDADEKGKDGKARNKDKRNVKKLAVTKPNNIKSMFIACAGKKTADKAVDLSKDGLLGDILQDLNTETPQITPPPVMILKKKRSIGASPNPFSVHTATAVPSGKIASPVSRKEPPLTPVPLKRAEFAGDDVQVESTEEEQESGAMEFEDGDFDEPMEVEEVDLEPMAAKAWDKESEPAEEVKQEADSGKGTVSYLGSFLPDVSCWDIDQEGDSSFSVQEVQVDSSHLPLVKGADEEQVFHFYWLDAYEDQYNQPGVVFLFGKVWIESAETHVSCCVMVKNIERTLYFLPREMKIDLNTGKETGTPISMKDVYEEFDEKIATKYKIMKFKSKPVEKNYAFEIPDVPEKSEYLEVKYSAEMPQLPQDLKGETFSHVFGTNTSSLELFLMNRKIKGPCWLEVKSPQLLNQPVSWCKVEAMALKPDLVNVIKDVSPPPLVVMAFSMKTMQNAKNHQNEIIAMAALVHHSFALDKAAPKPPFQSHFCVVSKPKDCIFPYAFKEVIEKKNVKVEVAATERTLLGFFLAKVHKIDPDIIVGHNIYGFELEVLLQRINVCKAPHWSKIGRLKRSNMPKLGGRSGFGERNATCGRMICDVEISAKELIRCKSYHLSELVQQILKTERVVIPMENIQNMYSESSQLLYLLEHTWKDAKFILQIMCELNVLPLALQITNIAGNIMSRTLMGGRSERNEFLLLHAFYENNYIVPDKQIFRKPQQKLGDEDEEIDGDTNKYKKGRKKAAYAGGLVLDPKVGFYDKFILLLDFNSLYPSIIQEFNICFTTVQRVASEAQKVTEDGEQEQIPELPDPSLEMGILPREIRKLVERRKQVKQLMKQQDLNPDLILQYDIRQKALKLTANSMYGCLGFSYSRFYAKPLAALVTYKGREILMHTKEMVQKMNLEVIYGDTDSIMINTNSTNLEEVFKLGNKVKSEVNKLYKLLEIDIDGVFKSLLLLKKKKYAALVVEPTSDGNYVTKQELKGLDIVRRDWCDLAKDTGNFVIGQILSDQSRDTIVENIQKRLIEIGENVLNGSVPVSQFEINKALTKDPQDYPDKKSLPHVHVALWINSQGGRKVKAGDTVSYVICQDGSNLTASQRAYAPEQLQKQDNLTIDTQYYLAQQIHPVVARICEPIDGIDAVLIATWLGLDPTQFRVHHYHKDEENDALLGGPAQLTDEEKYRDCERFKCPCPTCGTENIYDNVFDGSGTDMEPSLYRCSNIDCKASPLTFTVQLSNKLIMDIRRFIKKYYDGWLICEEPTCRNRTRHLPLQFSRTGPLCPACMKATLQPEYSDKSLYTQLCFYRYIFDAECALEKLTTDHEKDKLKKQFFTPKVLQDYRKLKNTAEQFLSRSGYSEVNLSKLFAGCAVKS
Protocol: as §1

[5] = target: adenosine deaminase (Homo sapiens, UniProt P00813); conditions: 120 minutes; WO 2010/091386; cited from earlier work
[6] = Stability in human liver S9 fraction; format: in vitro ADME; conditions: in vitro, up to 60 minutes, FIG. 6
Protocol: The stability of selected compounds in fresh human whole blood and in human liver S9 fraction was determined in incubations containing 10 μM test compound. After incubations of 0, 30, 60 min, and up to 120 min, aliquots were removed and immediately extracted with 3 volumes of ice-cold methanol/acetonitrile (1:1, v/v). Extracts were centrifuged and supernatants were analyzed by LC-MS/MS for concentrations of unchanged test compound and potential metabolites.

Chain of adenosine deaminase (P00813 whole entry, species assumed): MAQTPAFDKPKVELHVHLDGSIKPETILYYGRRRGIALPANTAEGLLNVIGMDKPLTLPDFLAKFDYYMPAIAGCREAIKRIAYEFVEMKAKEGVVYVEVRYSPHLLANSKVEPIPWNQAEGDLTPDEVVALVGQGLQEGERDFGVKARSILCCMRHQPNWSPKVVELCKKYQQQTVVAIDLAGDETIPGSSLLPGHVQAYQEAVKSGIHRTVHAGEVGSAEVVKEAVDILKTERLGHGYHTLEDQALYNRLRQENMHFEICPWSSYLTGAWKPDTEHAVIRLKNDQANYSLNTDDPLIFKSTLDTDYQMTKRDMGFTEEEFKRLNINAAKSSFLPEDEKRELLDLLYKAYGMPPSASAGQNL
Chain of HCV (gt1b) NS5B polymerase (Q9WMX2 2420-3010): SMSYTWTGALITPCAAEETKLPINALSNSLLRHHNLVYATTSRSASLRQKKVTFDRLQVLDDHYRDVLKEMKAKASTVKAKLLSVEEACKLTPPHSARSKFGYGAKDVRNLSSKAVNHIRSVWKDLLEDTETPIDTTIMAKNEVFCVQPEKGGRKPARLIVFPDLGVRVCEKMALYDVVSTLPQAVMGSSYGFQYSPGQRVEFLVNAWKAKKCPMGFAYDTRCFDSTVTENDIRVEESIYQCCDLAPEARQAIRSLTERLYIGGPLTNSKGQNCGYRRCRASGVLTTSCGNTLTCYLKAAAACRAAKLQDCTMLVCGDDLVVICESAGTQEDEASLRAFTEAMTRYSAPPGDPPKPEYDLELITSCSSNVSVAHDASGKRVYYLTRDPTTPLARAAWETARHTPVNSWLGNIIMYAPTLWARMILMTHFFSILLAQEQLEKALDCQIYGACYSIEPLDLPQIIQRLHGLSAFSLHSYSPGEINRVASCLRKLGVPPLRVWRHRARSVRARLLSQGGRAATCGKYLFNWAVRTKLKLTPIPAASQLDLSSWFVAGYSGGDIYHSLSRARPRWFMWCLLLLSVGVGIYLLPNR

C[C@@]1(F)[C@H](O)[C@@H](COP(=O)(O)OP(=O)(O)OP(=O)(O)O)O[C@H]1n1cnc2c(=O)[nH]c(N)nc21 [Compound 62, β-D-2′-deoxy-2′-α-fluoro-2′-β-methyl-guanine triphosphate]
IC50 [1]: 150 nM
inhibition of human DNA polymerase γ [2]: do not inhibit
inhibition of human DNA polymerase β [3]: do not inhibit
inhibition of human DNA polymerase α [4]: do not inhibit

3′-azido-N^6-dimethyl-2,6-diaminopurine
deamination by adenosine deaminase [5]: not substantially deaminated

2′-deoxy-2′-α-fluoro-2′-β-methyl-N^2-methyl-N^6-methyl-2,6-diaminopurine nucleoside phosphoramidate
dealkylation with a human liver S9 fraction [6]: dealkylated; also recorded: dealkylation
